The subject of data set [1] is interleukin-6 (IL-6) generation. In words: Inhibition of interleukin-6 (IL-6) generation in LPS-treated Raw 264.7 cells (ELISA). It is filed as cell-based, mouse. Particulars: Raw 264.7, LPS treated, read-out: Grades of IC50 on IL-6 generation. As to the method: Raw 264.7 cells were distributed by the same manner as described in Experimental Example <2-1>, and IL-6 included in the supernatant treated with each sample at different concentrations was measured by enzyme-linked immunosorbent assay (IL-6 ELISA kit, BD Bioscience, San Diego, Calif.).
(§1) Particularly, 10-fold diluted supernatant was distributed in a 96-well plate on which IL-6 antibody was attached, followed by adhesion for 2 hours. The supernatant remaining after the adhesion was washed with a washing buffer. The detection antibody and HRP were adhered on the washed plate for 1 hour. The remaining antibody was washed. Color development was induced by using TMB substrate. The reaction was terminated with sulfuric acid solution. Then, OD450 was measured. IL-6 in the supernatant was quantified by using the standard curve made with the standard IL-6 included in the kit. IL-6 suppression rate was calculated by measuring the same concentration that could inhibit IL-6 generation up to 50% in the LPS treated group and the results are shown in Table 8.
On the technique in general: In an ELISA, binding on a coated surface is turned into a signal by an enzyme label.

Another data set relates to interleukin-6. Particulars: DBA/1 CIA mice, 30 mg/kg oral, FIG. 14. As to the method:
(§2) Bovine type II collagen (100 μg/mouse, Hondrax, Seattle, USA) and complete Freund's adjuvant (Chondrex, Seattle, USA) were intradermally injected in the tail of […]. On day 21, 100 μg of bovine type II collagen was mixed with incomplete Freund's adjuvant (IFA), which was injected in the tail of each mouse once again to induce arthritis.
(§3) The compound of Example 25 of the invention was dissolved in a solvent (10% DMAC+10% Tween 80 in PBS).
(§4) Administration pathway: Oral administration Group (6 per group) • Vehicle control group (CIA group) • Dexamethasone (0.3 mg/kg)—positive control group • Example 25 compound group (30 mg/kg)
(§5) ELISA was performed with the serum and foot to investigate whether or not the compound of the invention could suppress the generation of TNF-alpha and interleukin-6, the inflammatory cytokines known as the promoter of inflammation which is the common symptom of acute and chronic arthritis.

The test system of a further data set is TNF-alpha. Particulars: DBA/1 CIA mice, 30 mg/kg oral, FIG. 13. How it is done:
as §2, §3, §4, §5

Data set [2] has as its system Nitrogen Oxide (NO) generation. Put plainly: Inhibition of nitrogen oxide (NO) generation in LPS-treated Raw 264.7 cells (Griess). It is filed as cell-based, mouse. Particulars: Raw 264.7, LPS 500 ng/ml, 24 hours. How it is done: Raw 264.7 (ATCC TIB71) cells were inoculated in a 96-well plate containing the same medium as used in Experimental Example 1 at the density of 1×10^5 cells/well. The cells were cultured in 5% CO2 at 37° C. for 4 hours to attach the cells onto the plate. The cells were treated with each sample at different concentrations, followed by further culture for 1 hour. […] were treated thereto at the final concentration of 500 ng/ml, followed by further culture for 24 hours. 100 μl of the supernatant was taken and transferred in a new plate, which was mixed with Griess reagent (a mixture of 1% sulfanilamide, 0.1% N-[1-naphthyl]-ethylenediamine dihydrochloride, and 5% phosphoric acid), followed by reaction for 10 minutes. Then, OD540 was measured. NO generation was quantified by using the sodium nitrite standard curve prepared from […] dissolved in the same medium at different concentrations. Considering the NO generation of the inflammation induced macrophages as 100%, the NO generation inhibition rate was calculated and presented in Table 7.
Background: The Griess reaction detects nitrite, a stable product of nitric oxide.

Data set [3] concerns rheumatoid arthritis animal model. As to conditions: DBA/1 CIA mice, 30 mg/kg oral, FIGS. 11 and 12. How it is done: as §2, §3, §4
The subject of data set [4] is Raw 264.7 (ATCC TIB71) cells. Put plainly: Evaluation of cell survival rate of macrophages (MTT). It is filed as cell-based, mouse. As to conditions: Raw 264.7, 10 μM, 24 hours. As to the method:
Raw 264.7 (ATCC TIB71) cells, the mouse derived macrophages', were inoculated in a 96-well plate containing DMEM (Dulbecco's modified Eagle medium; Welgene, Korea) supplemented with 10% FBS (Fetal Bovine Serum), 2 mM glutamine, penicillin (100 unit/ml), and streptomycin (100 μg/ml) at the density of 1×10^4 cells/well. The cells were cultured in 5% CO2 at 37° C. for 4 hours to attach the cells onto the plate. Next, the cells were treated with each sample at different concentrations, followed by further culture for 24 hours. To investigate the cell survival rate, 5 mg/ml of MTT (3-(4,5-dimethylthiazol-2-yl)-2,5-diphenyltetrazoliumbromide, Amresco, OH, USA) was distributed thereto (10 μl/well), followed by culture for 4 hours. Then, the supernatant was eliminated. Formazan reduced from MTT by mitochondria was dissolved in 100 μl of DMSO and then OD570 was measured. 0.2% DMSO was used for the negative control.

Data set [5] concerns Tumor Necrosis Factor Alpha (TNF-alpha). In words: Inhibition of TNF-alpha generation in LPS-treated Raw 264.7 cells (ELISA). The data set is classed as cell-based. As to conditions: Mus musculus, RAW264.7; Raw 264.7, LPS treated; read-out: Grades of IC50 on TNF-alpha generation. As to the method:
Raw 264.7 cells were distributed by the same manner as described in Experimental Example <2-1>, which were treated with the samples selected due to their high NO and IL-6 suppressing effect at different concentrations. TNF-alpha included in the supernatant was measured by enzyme-linked immunosorbent assay (TNF-alpha ELISA kit, R&D Systems, MN, USA).
as §1, with “100-fold” for “10-fold”, “TNF-alpha” for “IL-6”, “9.” for “8.”

Data set [6] is described as follows: Rheumatoid arthritis (collagen-induced) model: weight changes. The data set is classed as in vivo, mouse. As to conditions: DBA/1 CIA mice, 30 mg/kg oral, FIG. 10.
Description: Bovine type II collagen (100 μg/mouse, Hondrax, Seattle, USA) and complete Freund's adjuvant (Chondrex, Seattle, USA) were intradermally injected in the tail of 7˜9 DBA/1 male mouse. On day 21, 100 μg of bovine type II collagen was mixed with incomplete Freund's adjuvant (IFA), which was injected in the tail of each mouse once again to induce arthritis.

Like-named read-outs stand apart in the source and are kept apart here. Some results are limits rather than exact numbers.

Two molecules from US10053443B2, “2-phenylbenzofuran derivatives, method for preparing the same and use of the same for treating inflammatory disease” (KOREA RESEARCH INSTITUTE OF BIOSCIENCE AND BIOTECHNOLOGY, priority 2014, dated 2018) can be followed below.

For the molecule `COc1cc(CCCO)cc(CCc2cccc(C)c2)c1O` [Example 15, 4-(3-hydroxypropyl)-2-methoxy-6-(3-methylpenethyl)phenol], the IC50 in data set [1] lay within 20 to 30 µM. Also, the “generation of interleukin-6 induced by collagen” value in the data set on interleukin-6 is “inhibited”. In addition, the “generation of TNF-alpha induced by collagen” value in the data set on TNF-alpha is “inhibited”. Besides, in data set [2], the “Grades of NO generation inhibition rate (%)” value is “A (A: 35<A≤100)”. In addition, the “edema in the foot induced by collagen (clinical score)” value in data set [3] is on record as “suppressed edema in the foot induced by collagen up to the level of the positive control”. Also, the “Grades of cell survival rate (%, in 10 μM)” value in data set [4] is listed as “A (A: 90<A≤100)”.
For `COc1cc(CCCO)cc2cc(-c3ccc(O)c(O)c3)oc12` [Example 25, 4-(5-(3-hydroxypropyl)-7-methoxybenzofuran-2-yl)benzene-1,2-diol], the IC50 in data set [1] (Mus musculus, RAW264.7) was not above 10 µM; in data set [5], 1 to 3 µM. In data set [2], the “Grades of NO generation inhibition rate (%)” value is recorded as “A (A: 35<A≤100)”. The “Grades of cell survival rate (%, in 10 μM)” value in data set [4] is given as “A (A: 90<A≤100)”. Also, the weight change result in data set [6] is on record as “no weight change observed”.
